pIC50: −log10 of the molar value. Where a SMILES comes first, the peptide text is derived from it. The star is where a group is joined. Cbz = O=C(OCc1ccccc1)*
Experiment: Inhibition of putative Endothelin-converting enzyme partially purified from rabbit lung membranes

Row | SMILES | pIC50
1 | COC(=O)[C@H](Cc1c[nH]c2ccccc12)NC(=O)[C@H](CC(C)C)NC(=O)[C@H](CS)NC(=O)OCc1ccccc1 [2-[(S)-2-((R)-2-Benzyloxycarbonylamino-3-mercapto-propionylamino)-4-methyl-pentanoylamino]-3-(1H-indol-3-yl)-propionic acid (S)-methyl ester] (Cbz-Cys-Leu-Trp-OMe) | 4.51
2 | O=C(N[C@@H](CS)C(=O)N[C@@H](Cc1c[nH]c2ccccc12)C(=O)O)OCc1ccccc1 [(S)-2-((R)-2-Benzyloxycarbonylamino-3-mercapto-propionylamino)-3-(1H-indol-3-yl)-propionic acid] (Cbz-Cys-Trp-OH) | 4.52
3 | COC(=O)[C@H](Cc1c[nH]c2ccccc12)NC(=O)[C@H](CS)NC(=O)OCc1ccccc1 [(S)-2-[2-((R)-Benzyloxycarbonylamino)-3-mercapto-propionylamino]-3-(1H-indol-3-yl)-propionic acid methyl ester] (Cbz-Cys-Trp-OMe) | 4.33

Now those with a higher pIC50, led by results:

Row | pIC50 | SMILES
4 | 4.62 | CC(C)CC(C(=O)NO)C(=O)N[C@@H](Cc1c[nH]c2ccccc12)C(=O)O (stereo partly drawn) [(S)-2-(2-Hydroxycarbamoyl-4-methyl-pentanoylamino)-3-(1H-indol-3-yl)-propionic acid]
5 | 5.40 | COC(=O)[C@H](CC(C)C)NC(=O)[C@@H](CS)NC(=O)OCc1ccccc1 [(S)-2-((S)-2-Benzyloxycarbonylamino-3-mercapto-propionylamino)-4-methyl-pentanoic acid methyl ester]
